Drawing on patent US9949980B2, “Drugs to prevent HPV infection” (Wisconsin Alumni Research Foundation, priority 2008, dated 2018), this text covers activity and viability for 28 compounds.

Molecules are shown by their SMILES. Where two headings read alike, the source gives them in different places.

One data set has as its system HPV16 pseudoviruses. Nature of the data set: microbe, parasite or virus in culture. It is filed as cell-based. The conditions noted are these: Human papillomavirus 16, HEK-293T, 48 h. Here is the method: (§1) FIG. 1. High throughout screen (HTS) for identifying inhibitors of HPV infection. Shown is a schematic showing basic steps in the HTS. […] Briefly, HPV16 pseudoviruses containing the SEAP reporter genes are analyzed for their ability to infect as judged by the levels of secreted alkaline phosphatase in the tissue culture supernatant (light grey arrows). Cell viability was assessed in parallel on the same wells (dark grey arrows). In the specific HTS carried out in this study, the compounds were added at 3 uM/1% DMSO final concentration (black arrow) 4 hours prior to infection.
(§2) After incubation at 37° C. for 24 hrs, 35 μL of media was removed. […] Cells were incubated at 37° C. for 48 hrs. 2.5 μL of media was collected for SEAP assay using a PHOSPHA-LIGHT chemiluminescent alkaline phosphatase assay (Applied Biosystems). Cell viability was determined using the CellTiter Glo Luminescent Cell Viability Assay™ (Promega).

A further data set in a line: in vitro. To be noted: human, Viability (CelTiter Glow). The method, then:
as §1, §2

Where [1] appears, read: read-out: Infectivity (SEAP Activity), 3 μM HTS standard concentration, 293T cells, 48 hrs.
Setting [2] is: read-out: Infectivity vs. viability, 3 μM HTS standard concentration, ratio infectivity/viability.

In general, viability refers to a read-out of living cells in per cent, often relative to untreated cells. Turning to `O=C1NCCCC1c1n[nH]c(=S)n1Cc1ccccc1` (centres unmarked) [BTB 00471, 3-[4-(phenylmethyl)-5-sulfanylidene-1H-1,2,4-triazol-3-yl]piperidin-2-one], the activity at 3 µM with HPV16 pseudoviruses (setting [1]) stood at 41%; in the data set on HPV16 pseudoviruses (setting [2]), 37.5%. For the same compound, the viability at 52 h, 3 μM in “in vitro” was 109%.
Taken in the same sequence, the figures for `CN(C)C=C=C(O)c1ccccc1C(=O)c1ccc(Cl)cc1` [BTB 08556, (4-chlorophenyl)-[2-(3-dimethylamino-1-hydroxypropa-1,2-dienyl)phenyl]methanone] were 55.3%, 52% and 106%.
Regarding `CC(C)(C)NC(=O)C=Cc1cc([N+](=O)[O-])ccc1Sc1ccc(C(F)(F)F)cn1` [BTB 09390, N1-(tert-butyl)-3-(5-nitro-2-{[5-(trifluoromethyl)-2-pyridyl]thio}phenyl)acrylamide], the results for the activity at 3 µM in the data set on HPV16 pseudoviruses (setting [1]) and in the data set with HPV16 pseudoviruses (setting [2]) were 28.9% and 35.6%, respectively. Moreover, in “in vitro”, the viability at 52 h, 3 μM stood at 81.2%.
The matching figures for `N#CCCOCc1cccc2ccccc12` [Compound 5102121, 3-(1-naphthylmethoxy)propanenitrile]: 55.8%, 50.6% and 110%.
As to `CC(=NNC(N)=O)C1CC1(C)C(C)(C)C` (centres unmarked) [Compound 5104160, 1-(2-tert-butyl-2-methylcyclopropyl)-1-ethanone semicarbazone], the activity at 3 µM in the data set on HPV16 pseudoviruses (setting [1]) was 63%; with HPV16 pseudoviruses (setting [2]) it was 56.2%. In the data set “in vitro”, the viability at 52 h, 3 μM turned out to be 112%.
The matching figures for `O=S(=O)(Nc1nc2ccccc2nc1Nc1ccccc1)c1ccccc1` [Compound 5123541, N-(3-anilino-2-quinoxalinyl)benzenesulfonamide]: 47%, 44.5% and 106%.
With `O=C(NC(NC(=S)Nc1ccccc1[N+](=O)[O-])C(Cl)(Cl)Cl)c1ccco1` (centres unmarked) [Compound 5143070, N-[2,2,2-trichloro-1-({[(2-nitrophenyl)amino]carbonothioyl}amino)ethyl]-2-furamide], the activity at 3 µM in the data set with HPV16 pseudoviruses (setting [1]) was determined as 43.7%; with HPV16 pseudoviruses (setting [2]), 40.5%. Further, the viability at 52 h, 3 μM in “in vitro” amounted to 108%.
The matching figures for `O=C(Nc1ccc(Cl)cc1)Nc1ccc([N+](=O)[O-])cc1Br` [Compound 5191771, N-(2-bromo-4-nitrophenyl)-N′-(4-chlorophenyl)urea]: 39.9%, 41.9% and 95.2%.
For `O=C(NC(=S)Nc1ccc([N+](=O)[O-])cc1O)C12CC3CC(CC(C3)C1)C2` [Compound 5197089, N-{[(2-hydroxy-4-nitrophenyl)amino]carbonothioyl}-1-adamantanecarboxamide], the activity at 3 µM with HPV16 pseudoviruses (setting [1]) is 2.01%; in the data set with HPV16 pseudoviruses (setting [2]), 2.99%. Moreover, the viability at 52 h, 3 μM in “in vitro” came out at 67%.
The matching figures for `CCN(C(=O)c1ccccc1Cl)c1ccccc1` [Compound 5272305, 2-chloro-N-ethyl-N-phenylbenzamide]: 47.4%, 45.6% and 104%.
Taken in the same sequence, the figures for `O=C(CSc1nc2cc([N+](=O)[O-])ccc2[nH]1)Nc1ccc2c(c1)OCO2` [Compound 5349092, N-1,3-benzodioxol-5-yl-2-[(5-nitro-1H-benzimidazol-2-yl)thio]acetamide] were 52.5%, 51.1% and 103%.
As to `NC(=O)NC(c1ccccc1)c1ccccc1Br` (centres unmarked) [Compound 5571356, N-[(2-bromophenyl)(phenyl)methyl]urea], the activity at 3 µM in the data set with HPV16 pseudoviruses (setting [1]) came to 59.1%; in the data set on HPV16 pseudoviruses (setting [2]), 56%. Moreover, the viability at 52 h, 3 μM in the data set “in vitro” came to 106%.
Taken in the same sequence, the figures for `COc1cc(C=C2C(=O)NN(c3ccc(Cl)c(Cl)c3)C2=O)c([N+](=O)[O-])cc1OC` [Compound 5581710, 1-(3,4-dichlorophenyl)-4-(4,5-dimethoxy-2-nitrobenzylidene)-3,5-pyrazolidinedione] were 23.9%, 31.9% and 75.1%.
Taken in the same sequence, the figures for `O=C1NN(c2ccc(Cl)c(Cl)c2)C(=O)C1=Cc1ccc(Cl)c([N+](=O)[O-])c1` [Compound 5585119, 4-(4-chloro-3-nitrobenzylidene)-1-(3,4-dichlorophenyl)-3,5-pyrazolidinedione] were 54.4%, 50.5% and 108%.
With `Cc1ccc(NC(=O)Cc2ccc(F)cc2)cc1` [Compound 5585700, 2-(4-fluorophenyl)-N-(4-methylphenyl)acetamide], the results for the activity at 3 µM with HPV16 pseudoviruses (setting [1]) and with HPV16 pseudoviruses (setting [2]) were 55.4% and 52.5%, respectively. In addition, the viability at 52 h, 3 μM in the data set “in vitro” turned out to be 105%.
Taken in the same sequence, the figures for `O=[N+]([O-])c1cccc(C2Nc3ccc(Cl)cc3C3C=CCC32)c1` (centres unmarked) [Compound 5658856, 8-chloro-4-(3-nitrophenyl)-3a,4,5,9b-tetrahydro-3H-cyclopenta[c]quinoline] were 14.4%, 19.1% and 75.7%.
As to `COc1cccc(C(=O)Nc2ccc3oc(-c4ccc(F)cc4Cl)nc3c2)c1` [Compound 5715107, N-[2-(2-chloro-4-fluorophenyl)-1,3-benzoxazol-5-yl]-3-methoxybenzamide], the activity at 3 µM in the data set with HPV16 pseudoviruses (setting [1]) worked out at 42.5%; with HPV16 pseudoviruses (setting [2]), 38.2%. The viability at 52 h, 3 μM in the data set “in vitro” turned out to be 111%.
For the compound `CCOc1ccc(N(CC(=O)Nc2c(C)cccc2C)S(=O)(=O)c2ccc(SC)cc2)cc1` [Compound 5740080, N~1~-(2,6-dimethylphenyl)-N~2~-(4-ethoxyphenyl)-N~2~-{[4-(methylthio)phenyl]sulfonyl}glycinamide], the activity at 3 µM with HPV16 pseudoviruses (setting [1]) came to 42.2%; in the data set on HPV16 pseudoviruses (setting [2]), 40.7%. In addition, the viability at 52 h, 3 μM in “in vitro” worked out at 104%.
Taken in the same sequence, the figures for `O=C(Nc1ccccc1)Nc1nnc(Cc2ccc(F)cc2)s1` [Compound 5789300, N-[5-(4-fluorobenzyl)-1,3,4-thiadiazol-2-yl]-N′-phenylurea] were 40.1%, 40.8% and 98.4%.
Taken in the same sequence, the figures for `O=C(Nc1sc2c(c1C(=O)NCCc1ccccc1)CCCCC2)c1ccccc1F` [Compound 5794700, 2-[(2-fluorobenzoyl)amino]-N-(2-phenylethyl)-5,6,7,8-tetrahydro-4H-cyclohepta[b]thiophene-3-carboxamide] were 49.2%, 45.1% and 109%.
Taken in the same sequence, the figures for `COc1ccc(Cl)cc1C(=O)Nc1ccc(NC(=O)c2ccc(C(C)(C)C)cc2)cc1` [Compound 5795860, N-{4-[(4-tert-butylbenzoyl)amino]phenyl}-5-chloro-2-methoxybenzamide] were 47.1%, 42.4% and 111%.
Turning to `Cc1ccnc(NS(=O)(=O)c2ccc(N3C(=O)c4ccccc4C3=O)cc2)n1` [Compound 5842264, 4-(1,3-dioxo-1,3-dihydro-2H-isoindol-2-yl)-N-(4-methyl-2-pyrimidinyl)benzenesulfonamide], the activity at 3 µM in the data set on HPV16 pseudoviruses (setting [1]) was found to be 67%; in the data set with HPV16 pseudoviruses (setting [2]), 59.6%. In addition, in “in vitro”, the viability at 52 h, 3 μM stood at 113%.
The matching figures for `O=C1C(=Cc2cccc(O)c2)SC(=S)N1c1ccc(Cl)cc1` [Compound 5851060, 3-(4-chlorophenyl)-5-(3-hydroxybenzylidene)-2-thioxo-1,3-thiazolidin-4-one]: 56.3%, 55.3% and 102%.
With `CCOC(=O)[C@H]1C(=O)c2ccccc2C(=O)/C1=C/c1ccc(CC)cc1` [Compound 5860904, ethyl (2R,3E)-3-[(4-ethylphenyl)methylidene]-1,4-dioxonaphthalene-2-carboxylate], the activity at 3 µM amounted to 21.9% in the data set with HPV16 pseudoviruses (setting [1]) and 33.2% with HPV16 pseudoviruses (setting [2]). For the same compound, in the data set “in vitro”, the viability at 52 h, 3 μM is 66%.
The matching figures for `Cc1ccc(S(=O)(=O)N(C)c2ccc(Br)cc2C(=O)c2ccccc2)cc1` [Compound 5867793, N-(2-benzoyl-4-bromophenyl)-N,4-dimethylbenzenesulfonamide]: 36.1%, 38% and 95%.
The matching figures for `COc1cc(C=C2SC(=S)NC2=O)cc(Cl)c1OC(C)C` [Compound 5868253, 5-(3-chloro-4-isopropoxy-5-methoxybenzylidene)-2-thioxo-1,3-thiazolidin-4-one]: 4.97%, 7.45% and 66.8%.
The matching figures for `CC1=C(C(=O)Nc2ccc(C)c(Cl)c2)C(c2ccc(F)cc2)NC(=O)N1` (centres unmarked) [Compound 5880766, N-(3-chloro-4-methylphenyl)-4-(4-fluorophenyl)-6-methyl-2-oxo-1,2,3,4-tetrahydro-5-pyrimidinecarboxamide]: 31.9%, 34.6% and 92%.
For the compound `O=C(Nc1ccc(Cl)c(Cl)c1)Nc1ccccc1C(=O)O` [Compound 5963375, 2-({[(3,4-dichlorophenyl)amino]carbonyl}amino)benzoic acid], the activity at 3 µM in the data set on HPV16 pseudoviruses (setting [1]) was determined as 14.2%; in the data set with HPV16 pseudoviruses (setting [2]) it was 20.2%.
